Test results as given in PubChem BioAssay AID1963827 (Molecular Pharmacology Branch, DTP, NCI, 2024).
pIC50: −log10 of the molar value.

System: 994946-033-R-J1-PDC complex spheroid viability
Assay: Anticancer human tumor 994946-033-R-J1-PDC patient-derived melanoma cell line growth inhibition [POLQ]
Settings: for pIC50: curve of first compound; for viability, T/C: stronger effect = lower value; active = viability on the fitted dose curve at most 10% of control; inactive = the rest
In short: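 PDC + HUVEC + MSC complex spheroids; POLQ inhibitors ± partner drugs; top conc. at/near clinical Cmax, else 10 microM (SN-38 1 microM), half-log dilutions; 37 degrees C, 5% CO2.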

[1] = second compound 0.0316 µM, first compound 0.0316 µM
[2] = second compound 0.0316 µM, first compound 0.1 µM
[3] = second compound 0.0316 µM, first compound 0.316 µM
[4] = second compound 0.0316 µM, first compound 1 µM
[5] = second compound 0.0316 µM, first compound 3.16 µM
[6] = second compound 0.0316 µM, first compound 10 µM
[7] = second compound 0.1 µM, first compound 0.0316 µM
[8] = second compound 0.1 µM, first compound 0.1 µM
[9] = second compound 0.1 µM, first compound 0.316 µM
[10] = second compound 0.1 µM, first compound 1 µM
[11] = second compound 0.1 µM, first compound 3.16 µM
[12] = second compound 0.1 µM, first compound 10 µM
[13] = second compound 0.316 µM, first compound 0.0316 µM
[14] = second compound 0.316 µM, first compound 0.1 µM
[15] = second compound 0.316 µM, first compound 0.316 µM
[16] = second compound 0.316 µM, first compound 1 µM
[17] = second compound 0.316 µM, first compound 3.16 µM
[18] = second compound 0.316 µM, first compound 10 µM
[19] = second compound 1 µM, first compound 0.0316 µM
[20] = second compound 1 µM, first compound 0.1 µM
[21] = second compound 1 µM, first compound 0.316 µM
[22] = second compound 1 µM, first compound 1 µM
[23] = second compound 1 µM, first compound 3.16 µM
[24] = second compound 1 µM, first compound 10 µM
[25] = second compound 3.16 µM, first compound 0.0316 µM
[26] = second compound 3.16 µM, first compound 0.1 µM
[27] = second compound 3.16 µM, first compound 0.316 µM
[28] = second compound 3.16 µM, first compound 1 µM
[29] = second compound 3.16 µM, first compound 3.16 µM
[30] = second compound 3.16 µM, first compound 10 µM
[31] = second compound 10 µM, first compound 0.0316 µM
[32] = second compound 10 µM, first compound 0.1 µM
[33] = second compound 10 µM, first compound 0.316 µM
[34] = second compound 10 µM, first compound 1 µM
[35] = second compound 10 µM, first compound 3.16 µM
[36] = second compound 10 µM, first compound 10 µM
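Note: spheroids exposed to drugs for 7 days.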
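Throughout, for viability, T/C: 100% = DMSO vehicle treated spheroids.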

CC1COCCN1c1cc(C2(S(C)(=N)=O)CC2)nc(-c2ccnc3[nH]ccc23)n1 (stereo not drawn) + Nc1ccc(C#CCN(C(=O)Cc2ncc(C(F)(F)F)cc2C(F)(F)F)c2ccc(F)cc2)nn1
< 5.00: pIC50 (second compound 10 µM)
5.70: pIC50 (second compound 0.316 µM)
5.65: pIC50 (second compound 0.0316 µM)
inactive: viability, T/C [1] 91.6% | viability, T/C [2] 93% | viability, T/C [3] 76.2% | viability, T/C [4] 74.6% | viability, T/C [5] 37.4% | viability, T/C [6] 42.1% | viability, T/C [7] 127% | viability, T/C [8] 135% | viability, T/C [9] 95% | viability, T/C [10] 72.4% | viability, T/C [11] 68.5% | viability, T/C [12] 37.9% | viability, T/C [13] 104% | viability, T/C [14] 86.5% | viability, T/C [15] 109% | viability, T/C [16] 59.4% | viability, T/C [17] 47.9% | viability, T/C [18] 39.5% | viability, T/C [19] 124% | viability, T/C [20] 127% | viability, T/C [21] 90.3% | viability, T/C [22] 63% | viability, T/C [23] 51.3% | viability, T/C [24] 40% | viability, T/C [25] 113% | viability, T/C [26] 110% | viability, T/C [27] 113% | viability, T/C [28] 85% | viability, T/C [29] 70.3% | viability, T/C [30] 25.3% | viability, T/C [31] 127% | viability, T/C [32] 102% | viability, T/C [33] 108% | viability, T/C [34] 71.2% | viability, T/C [35] 67.6% | viability, T/C [36] 49.9%
5.60: pIC50 (second compound 1 µM)
5.24: pIC50 (second compound 0.1 µM)
5.29: pIC50 (second compound 3.16 µM)

CCc1cc2c(N3CCc4c(cc(Cn5ccnc5)cc4-c4cn(C)nc4C(F)(F)F)C3=O)ccnc2c(OC)n1 + Nc1ccc(C#CCN(C(=O)Cc2ncc(C(F)(F)F)cc2C(F)(F)F)c2ccc(F)cc2)nn1
< 5.00: pIC50 (second compound 0.0316 µM) | pIC50 (second compound 0.1 µM) | pIC50 (second compound 0.316 µM) | pIC50 (second compound 1 µM) | pIC50 (second compound 3.16 µM) | pIC50 (second compound 10 µM)
inactive: viability, T/C [1] 51.5% | viability, T/C [2] 79.4% | viability, T/C [3] 82% | viability, T/C [4] 88.2% | viability, T/C [5] 79.6% | viability, T/C [6] 79% | viability, T/C [7] 101% | viability, T/C [8] 87.7% | viability, T/C [9] 88.6% | viability, T/C [10] 76.8% | viability, T/C [11] 73.8% | viability, T/C [12] 81.4% | viability, T/C [13] 89.3% | viability, T/C [14] 97.6% | viability, T/C [15] 78.4% | viability, T/C [16] 70.6% | viability, T/C [17] 79.8% | viability, T/C [18] 63.9% | viability, T/C [19] 98.9% | viability, T/C [20] 62.2% | viability, T/C [21] 85.1% | viability, T/C [22] 75% | viability, T/C [23] 86.7% | viability, T/C [24] 87.4% | viability, T/C [25] 75.9% | viability, T/C [26] 78% | viability, T/C [27] 66.9% | viability, T/C [28] 79.4% | viability, T/C [29] 89.2% | viability, T/C [30] 66.7% | viability, T/C [31] 101% | viability, T/C [32] 98.2% | viability, T/C [33] 102% | viability, T/C [34] 89.8% | viability, T/C [35] 80.8% | viability, T/C [36] 70.8%

COc1cc2cc(C(=O)CCC(=O)O)sc2cc1OC + Nc1ccc(C#CCN(C(=O)Cc2ncc(C(F)(F)F)cc2C(F)(F)F)c2ccc(F)cc2)nn1
inactive: viability, T/C [1] 81.7% | viability, T/C [2] 99.5% | viability, T/C [3] 92.4% | viability, T/C [4] 83.2% | viability, T/C [5] 86.7% | viability, T/C [6] 67.9% | viability, T/C [7] 126% | viability, T/C [8] 101% | viability, T/C [9] 102% | viability, T/C [10] 92.1% | viability, T/C [11] 87.2% | viability, T/C [12] 87.1% | viability, T/C [13] 111% | viability, T/C [14] 86% | viability, T/C [15] 87.6% | viability, T/C [16] 109% | viability, T/C [17] 72.3% | viability, T/C [18] 96% | viability, T/C [19] 93.5% | viability, T/C [20] 98% | viability, T/C [21] 80.1% | viability, T/C [22] 79.4% | viability, T/C [23] 88.9% | viability, T/C [24] 95.8% | viability, T/C [25] 116% | viability, T/C [26] 75.5% | viability, T/C [27] 111% | viability, T/C [28] 96.3% | viability, T/C [29] 94.9% | viability, T/C [30] 66.8% | viability, T/C [31] 80.5% | viability, T/C [32] 81.9% | viability, T/C [33] 90.7% | viability, T/C [34] 91.8% | viability, T/C [35] 115% | viability, T/C [36] 78.8%
< 5.00: pIC50 (second compound 0.0316 µM) | pIC50 (second compound 0.1 µM) | pIC50 (second compound 0.316 µM) | pIC50 (second compound 1 µM) | pIC50 (second compound 3.16 µM) | pIC50 (second compound 10 µM)

COc1ccc([C@@H](O)c2cc(-c3ncnc4cc(N5CCOCC5)ccc34)c(F)cc2Cl)nn1 + Nc1ccc(C#CCN(C(=O)Cc2ncc(C(F)(F)F)cc2C(F)(F)F)c2ccc(F)cc2)nn1
inactive: viability, T/C [1] 90.3% | viability, T/C [2] 114% | viability, T/C [3] 75.5% | viability, T/C [4] 89% | viability, T/C [5] 52.8% | viability, T/C [6] 45.2% | viability, T/C [7] 91.6% | viability, T/C [8] 112% | viability, T/C [9] 99.4% | viability, T/C [10] 98.7% | viability, T/C [11] 62% | viability, T/C [12] 44.1% | viability, T/C [13] 93.3% | viability, T/C [14] 111% | viability, T/C [15] 116% | viability, T/C [16] 90.6% | viability, T/C [17] 50.7% | viability, T/C [18] 37.3% | viability, T/C [19] 114% | viability, T/C [20] 117% | viability, T/C [21] 115% | viability, T/C [22] 61.4% | viability, T/C [23] 64.5% | viability, T/C [24] 55.1% | viability, T/C [25] 109% | viability, T/C [26] 87% | viability, T/C [27] 102% | viability, T/C [28] 91.3% | viability, T/C [29] 67.5% | viability, T/C [30] 42.5% | viability, T/C [31] 116% | viability, T/C [32] 126% | viability, T/C [33] 102% | viability, T/C [34] 75.7% | viability, T/C [35] 62.2% | viability, T/C [36] 34%
< 5.00: pIC50 (second compound 1 µM)
5.15: pIC50 (second compound 3.16 µM)
5.34: pIC50 (second compound 10 µM)
5.50: pIC50 (second compound 0.316 µM)
5.17: pIC50 (second compound 0.1 µM)
5.30: pIC50 (second compound 0.0316 µM)
